Measured values published in US20240277713A1 (Kadmon Corporation, LLC, priority 2022, published 2024).

Tests used:
CYP2C19 = CYP2C19 (Homo sapiens, UniProt P33261); experiment: Enzyme systems in vitro: CYP2C19; assay type: in vitro ADME
[1] = Pharmacokinetics in chronic GVHD patients; assay type: in vivo, human
rats = experiment: General toxicology studies in rats; assay type: in vivo, rat
P-gp = P-gp (Homo sapiens, UniProt P08183); experiment: Transporter systems in vitro: P-gp; assay type: in vitro ADME
bacterial = experiment: in vitro bacterial mutagenicity (Ames) assay; assay type: cell-based
[2] = Clinical drug interaction studies, effects of other drugs on belumosudil; assay type: in vivo, human; details: healthy subjects
[3] = test system: New Zealand White rabbits; experiment: Pilot prenatal developmental toxicity study in New Zealand White rabbits with non-pregnant dose range finding phase (Example 2)
Procedure: The study was conducted in two phases: Phase A was a dose range finding tolerance study with non-pregnant rabbits, and Phase B was the pilot developmental toxicity study.
All fetuses were given the appropriate external examination.

UGT1A1 = biological target: T1, UGT1A1 (Homo sapiens, UniProt P22309); experiment: Enzyme systems in vitro: UGT1A1; assay type: in vitro ADME
T1 sequence (P22309 26-533): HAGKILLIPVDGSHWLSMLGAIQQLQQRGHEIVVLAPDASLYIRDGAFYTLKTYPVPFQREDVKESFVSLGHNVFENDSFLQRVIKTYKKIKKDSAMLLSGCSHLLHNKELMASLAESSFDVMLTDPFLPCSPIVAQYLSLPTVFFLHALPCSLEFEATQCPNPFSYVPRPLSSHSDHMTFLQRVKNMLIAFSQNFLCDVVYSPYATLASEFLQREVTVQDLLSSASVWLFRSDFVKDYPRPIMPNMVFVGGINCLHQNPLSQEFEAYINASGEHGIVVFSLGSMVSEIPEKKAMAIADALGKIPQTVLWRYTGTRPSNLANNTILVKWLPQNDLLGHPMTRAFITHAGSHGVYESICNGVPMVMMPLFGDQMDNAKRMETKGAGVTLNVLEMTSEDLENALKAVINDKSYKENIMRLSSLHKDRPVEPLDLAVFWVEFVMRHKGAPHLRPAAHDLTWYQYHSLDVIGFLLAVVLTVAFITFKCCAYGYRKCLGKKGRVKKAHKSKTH

[4] = coadministration of rabeprazole

Chain of P-gp (P08183 whole entry): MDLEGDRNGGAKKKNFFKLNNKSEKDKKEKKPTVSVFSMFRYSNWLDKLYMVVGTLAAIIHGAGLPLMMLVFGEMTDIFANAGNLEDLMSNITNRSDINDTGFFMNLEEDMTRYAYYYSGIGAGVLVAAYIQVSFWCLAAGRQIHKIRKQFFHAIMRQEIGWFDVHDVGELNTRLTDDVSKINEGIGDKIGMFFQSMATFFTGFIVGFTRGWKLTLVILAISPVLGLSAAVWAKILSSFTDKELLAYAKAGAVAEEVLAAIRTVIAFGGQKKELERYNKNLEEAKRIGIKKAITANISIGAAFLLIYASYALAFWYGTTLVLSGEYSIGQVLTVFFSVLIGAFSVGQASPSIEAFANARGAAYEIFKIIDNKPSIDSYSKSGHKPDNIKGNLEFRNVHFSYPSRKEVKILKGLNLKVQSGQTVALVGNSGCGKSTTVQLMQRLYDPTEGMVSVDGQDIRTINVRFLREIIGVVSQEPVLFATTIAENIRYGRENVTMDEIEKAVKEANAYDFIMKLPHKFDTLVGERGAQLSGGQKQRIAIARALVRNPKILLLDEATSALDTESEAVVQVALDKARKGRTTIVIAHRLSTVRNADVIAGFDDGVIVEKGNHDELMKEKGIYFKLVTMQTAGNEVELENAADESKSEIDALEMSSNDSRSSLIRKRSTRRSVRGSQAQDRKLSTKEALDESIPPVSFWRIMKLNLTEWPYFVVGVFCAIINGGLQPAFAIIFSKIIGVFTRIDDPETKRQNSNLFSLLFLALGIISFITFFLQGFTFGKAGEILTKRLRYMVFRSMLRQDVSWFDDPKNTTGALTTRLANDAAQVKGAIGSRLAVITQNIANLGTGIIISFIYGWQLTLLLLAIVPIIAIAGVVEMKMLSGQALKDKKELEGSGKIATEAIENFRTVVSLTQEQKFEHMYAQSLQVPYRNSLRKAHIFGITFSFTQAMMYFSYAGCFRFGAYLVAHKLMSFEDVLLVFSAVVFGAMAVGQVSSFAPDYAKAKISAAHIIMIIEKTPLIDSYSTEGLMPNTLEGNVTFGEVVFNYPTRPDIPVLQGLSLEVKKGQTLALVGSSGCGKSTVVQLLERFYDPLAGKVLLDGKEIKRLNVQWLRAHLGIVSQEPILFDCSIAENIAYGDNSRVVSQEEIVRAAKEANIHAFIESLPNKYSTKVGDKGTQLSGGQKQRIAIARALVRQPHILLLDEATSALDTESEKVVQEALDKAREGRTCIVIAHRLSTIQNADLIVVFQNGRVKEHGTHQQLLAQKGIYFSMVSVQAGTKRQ
Chain of CYP2C19 (P33261 whole entry): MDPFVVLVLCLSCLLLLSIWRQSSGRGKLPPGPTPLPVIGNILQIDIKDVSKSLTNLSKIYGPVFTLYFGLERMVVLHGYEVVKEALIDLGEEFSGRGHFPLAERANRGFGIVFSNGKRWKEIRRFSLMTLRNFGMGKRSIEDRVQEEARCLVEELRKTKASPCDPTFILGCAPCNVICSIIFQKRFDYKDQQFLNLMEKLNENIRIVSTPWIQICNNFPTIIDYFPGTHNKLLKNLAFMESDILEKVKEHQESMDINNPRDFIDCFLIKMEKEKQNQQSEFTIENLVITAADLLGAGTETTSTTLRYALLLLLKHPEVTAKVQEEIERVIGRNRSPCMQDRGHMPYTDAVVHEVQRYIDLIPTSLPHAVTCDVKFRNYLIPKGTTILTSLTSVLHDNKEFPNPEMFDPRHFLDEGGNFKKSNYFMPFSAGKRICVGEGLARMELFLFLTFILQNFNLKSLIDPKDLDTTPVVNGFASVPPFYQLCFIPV

CC(C)NC(=O)COc1cccc(-c2nc(Nc3ccc4[nH]ncc4c3)c3ccccc3n2)c1 [belumosudil, 2-{3-[4-(1H-indazol-5-ylamino)-2-quinazolinyl]phenoxy}-N-(propan-2-yl) acetamide]
CYP2C19 inhibition (CYP2C19): inhibitor | mean (% CV) steady-state AUC ([1]; 200 mg once daily): 22700 (48%) h·ng/mL | mean (% CV) steady-state Cmax ([1]; 200 mg once daily): 2390 (44%) ng/mL | pharmacokinetics with regard to age, sex, weight, or mild to moderate renal impairment ([1]; age 18 to 77 years, weight 38.6 to 143 kg): No clinically significant differences | Tmax ([1]; human, in vivo, oral, 200 mg once daily or twice daily, read-out: Median Tmax at steady state): 1.26 to 2.53 h | mean elimination half-life ([1]; patients, % CV 39%): 19 h | clearance ([1]; patients, % CV 46%): 9.83 L/h | dose with decreased follicular development in ovaries (rats): 275 mg/kg/day | P-gp substrate status (P-gp): substrate of P-gp | P-gp inhibition (P-gp; clinically relevant concentrations): inhibits | genotoxicity, bacterial mutagenicity (Ames) assay (bacterial): not genotoxic | effect on belumosudil exposure ([2]; coadministered with itraconazole): no clinically meaningful effect | decrease in belumosudil AUC ([2]; coadministration of omeprazole): 47% | decrease in belumosudil Cmax ([2]; coadministration of omeprazole): 68% | decrease in belumosudil AUC [2, 4]: 80% | decrease in belumosudil Cmax [2, 4]: 87% | decrease in belumosudil AUC ([2]; coadministration of rifampin): 72% | decrease in belumosudil Cmax ([2]; coadministration of rifampin): 59% | maternal toxicity ([3]; 25 or 50 mg base/kg/day, GD 6-18): no toxicologically relevant maternal toxicity was observed | maternal response ([3]; 100 and 250 mg base/kg/day, dose-dependent): reduced body weight gain/loss, decreased food consumption, clinical signs | treatment-related effects ([3]; Phase A, 300 and 400 mg base/kg/day): slight body weight losses and decreased food consumption | embryo or fetal toxicity ([3]; Phase B, any dose level (25-250 mg base/kg/day)): no treatment-related embryo or fetal toxicity was apparent | NOAEL for developmental toxicity ([3]; pregnant rabbits): 250 mg base/kg/day | NOAEL for maternal toxicity ([3]; pregnant rabbits): 50 mg base/kg/day | survival ([3]; rabbit, in vivo): not affected | UGT1A1 inhibition (UGT1A1): inhibitor
